{"source": "patent US11453667B2", "about": "“Pyridone-pyrimidine derivative acting as KRASG12C mutein inhibitor” (MEDSHINE DISCOVERY INC., priority 2018, dated 2022)", "assay": "Rat pharmacokinetic evaluation experiment", "type": "in vivo", "details": "plasma, male SD rats; for AUC: read-out: AUC (exposure)", "from_the_text": "To determine the drug concentrations in plasma at different times after intravenous and intragastric administration of the test compounds to the rats by using the LC/MS/MS method and using male SD rats as the test animals; To study the pharmacokinetic behaviors of the test compounds in rats and to evaluate the pharmacokinetic characteristics thereof.\nExperiment scheme: 10 healthy adult male SD rats were used as experimental animals and divided into 4 groups according to the principle of similar body weight, with 2 in each group of the group IV (two groups) and 3 in each group of the group PO (two groups). The animals were purchased from Beijing Vital River Laboratory Animal Technology Co., Ltd.\nGroup IV: an appropriate amount of samples were weighed; an appropriate amount of DMSO, PEG400 and water were added successively thereto according to the volume ratio of 10:60:30; and stirring was performed under sonication to reach a clear state of 1.5 mg/mL.\nGroup PO: an appropriate amount of samples were weighed; an appropriate amount of DMSO, PEG400 and water were added successively thereto according to the volume ratio of 10:60:30; and stirring was performed under sonication to reach a clear state of 1.0 mg/mL.\nAfter fasting overnight, each rat in the group IV was administered intravenously with a volume of 2 mL/kg and a dose of 3 mg/kg; each rat in the group PO was administered intragastrically with a volume of 10 mL/kg and a dose of 10 mg/kg.\nAfter each of the male SD rats in the group IV was administrated with the test compounds, 200 ul of blood samples were collected at 0.0833, 0.25, 0.5, 1, 2, 4, 6, 8 and 24 hours, and were placed in a commercial anticoagulation tube pre-loaded with EDTA-K2. After each rat in the group PO was administrated with the test compounds, 200 ul of blood samples were collected at 0.25, 0.5, 1, 2, 4, 6, 8 and 24 hours respectively, and were placed in a commercial anticoagulation tube pre-loaded with EDTA-K2. The test tube was centrifuged for 15 minutes to separate the plasma and stored at −60° C. 2 hours after administration, the animals can be fed. The content of the test compounds in plasma was determined by the LC/MS/MS method after intravenous and intragastric administration to the rats. The linear range of the method was from 2.00 to 6000 nM; plasma samples were analyzed after treatment of precipitating proteins by acetonitrile.\nNote: Cl: clearance rate; Vd: volume of distribution; AUC: exposure; T1/2: half-life; Cmax: maximum compound concentration after oral administration; Tmax: time to reach Cmax; F: bioavailability.", "note": "Read-outs that look alike come from different tables or passages of the source.", "data": [{"compound": "C=CC(=O)N1CCN(c2ncnc3c(=O)n(-c4c(N)c(Cl)cc(Cl)c4F)c(C(F)(F)F)cc23)CC1", "note": "[Example 49]", "values": [{"measurement": "AUC", "setting": "IV 3 mg/kg", "value": 4.62, "unit": "µM·h"}, {"measurement": "clearance", "setting": "IV 3 mg/kg, read-out: Cl (clearance rate)", "value": 20.6, "unit": "mL/min/kg"}, {"measurement": "half-life", "setting": "IV 3 mg/kg, read-out: T1/2 (half-life) (converted)", "value": 0.94, "unit": "h"}, {"measurement": "Vd", "setting": "IV 3 mg/kg, read-out: Vd (volume of distribution)", "value": 2.15, "unit": "L/kg"}, {"measurement": "Cmax", "setting": "PO 10 mg/kg", "value": 2110, "unit": "nM"}, {"measurement": "Tmax", "setting": "PO 10 mg/kg", "value": 1.67, "unit": "h"}, {"measurement": "AUC", "setting": "PO 10 mg/kg", "value": 7.74, "unit": "µM·h"}, {"measurement": "bioavailability", "setting": "PO 10 mg/kg, read-out: F (bioavailability)", "value": 52, "unit": "%"}]}]}
